According to the supplement of paper PMC13380429:

Columns and labels:
[1] = system: A549-ACE2 infected with SARS-CoV-2; assay: cell count relative to DMSO; higher = less toxic; conditions: 24 h
Caco-2 [2] = assay: relative viability EC50 (midpoint between 100% and the lowest measured viability); higher = less toxic; conditions: 72 h
Vero E6 [3] = assay: as above; conditions: 72 h
U2OS [4] = assay: as above; conditions: 72 h
HepG2 [5] = assay: as above; conditions: 72 h
Calu-3 [6] = assay: as above; conditions: 72 h
A549-ACE2 [7] = assay: drug-induced phospholipidosis relative to tamoxifen; higher = more phospholipidosis
Caco-2 [8] = assay: drug sensitivity score (DSS) for viability; higher = more toxic; extreme values may be limits of the assay; conditions: 72 h
Vero E6 [9] = assay: as above; conditions: 72 h
U2OS [10] = assay: as above; conditions: 72 h
HepG2 [11] = assay: as above; conditions: 72 h
Calu-3 [12] = assay: as above; conditions: 72 h
[13] = system: A549-ACE2 infected with SARS-CoV-2; assay: morphology score (similarity to uninfected cells); higher = more like uninfected cells; conditions: 24 h
[14] = system: A549-ACE2 infected with SARS-CoV-2; assay: SARS-CoV-2 infection rate relative to DMSO; higher = more infection; conditions: 24 h
A549-ACE2 [15] = assay: phospholipidosis EC50; higher = less potent phospholipidosis inducer
Caco-2 [16] = assay: cell viability relative to DMSO; higher = less toxic; conditions: 72 h
Vero E6 [17] = assay: as above; conditions: 72 h
U2OS [18] = assay: as above; conditions: 72 h
HepG2 [19] = assay: as above; conditions: 72 h
Calu-3 [20] = assay: as above; conditions: 72 h

NC(=O)c1cnc(N[C@@H]2CCCC[C@@H]2N)nc1Nc1cccc(-n2nccn2)c1
Conditions	SARS-CoV-2 infection rate [%]	cell count [%]	cell viability [%]	morphology score	phospholipidosis EC50 [µM]
A549-ACE2 [15], 24 h	–	–	–	–	6.68
A549-ACE2 [15], 48 h	–	–	–	–	4.26
Caco-2 [16], 1 nM	–	–	94.6	–	–
Caco-2 [16], 10 nM	–	–	92.9	–	–
Caco-2 [16], 100 nM	–	–	91.5	–	–
Caco-2 [16], 1000 nM	–	–	93	–	–
Caco-2 [16], 10000 nM	–	–	44.7	–	–
Calu-3 [20], 1 nM	–	–	97.3	–	–
Calu-3 [20], 10 nM	–	–	94.5	–	–
Calu-3 [20], 100 nM	–	–	101	–	–
Calu-3 [20], 1000 nM	–	–	69.6	–	–
Calu-3 [20], 10000 nM	–	–	45.2	–	–
HepG2 [19], 1 nM	–	–	101	–	–
HepG2 [19], 10 nM	–	–	101	–	–
HepG2 [19], 100 nM	–	–	99.1	–	–
HepG2 [19], 1000 nM	–	–	95	–	–
HepG2 [19], 10000 nM	–	–	31.7	–	–
U2OS [18], 1 nM	–	–	99.7	–	–
U2OS [18], 10 nM	–	–	96.8	–	–
U2OS [18], 100 nM	–	–	106	–	–
U2OS [18], 1000 nM	–	–	93.9	–	–
U2OS [18], 10000 nM	–	–	46.1	–	–
Vero E6 [17], 1 nM	–	–	98.9	–	–
Vero E6 [17], 10 nM	–	–	100	–	–
Vero E6 [17], 100 nM	–	–	91.1	–	–
Vero E6 [17], 1000 nM	–	–	98.4	–	–
Vero E6 [17], 10000 nM	–	–	81.6	–	–
[1], 0.3 µM	–	94	–	–	–
[1], 3 µM	–	101	–	–	–
[1], 10 µM	–	50	–	–	–
[1], 30 µM	–	1	–	–	–
[13], 0.3 µM	–	–	–	-0.18	–
[13], 3 µM	–	–	–	0.74	–
[13], 10 µM	–	–	–	0.43	–
[13], 30 µM	–	–	–	0.3	–
[14], 0.3 µM	104	–	–	–	–
[14], 3 µM	32	–	–	–	–
[14], 10 µM	72	–	–	–	–
[14], 30 µM	121	–	–	–	–

Conditions	drug sensitivity score	relative viability EC50 [µM]
Caco-2 [2]	–	2.13
Caco-2 [8]	4.2	–
Calu-3 [6]	–	0.917
Calu-3 [12]	6.7	–
HepG2 [5]	–	2.57
HepG2 [11]	4.5	–
U2OS [4]	–	2.24
U2OS [10]	3.9	–
Vero E6 [3]	–	> 10
Vero E6 [9]	0.7	–

drug-induced phospholipidosis [%], A549-ACE2 [7]
Conditions	0.3 µM	0.833333 µM	3.33333 µM	6.66667 µM	10 µM
24 h	1.48	0.83	27.1	71.6	99.3
48 h	4.57	2.08	16.9	73.9	–
72 h	3.49	-1.55	12.3	69.8	–

O=C(CN1C2=NCCN2c2ccccc21)c1ccc(-c2ccccc2)cc1
Conditions	SARS-CoV-2 infection rate [%]	cell count [%]	cell viability [%]	morphology score	phospholipidosis EC50 [µM]
A549-ACE2 [15], 24 h	–	–	–	–	5.39
A549-ACE2 [15], 48 h	–	–	–	–	7.27
A549-ACE2 [15], 72 h	–	–	–	–	8.25
Caco-2 [16], 1 nM	–	–	99.6	–	–
Caco-2 [16], 10 nM	–	–	102	–	–
Caco-2 [16], 100 nM	–	–	110	–	–
Caco-2 [16], 1000 nM	–	–	102	–	–
Caco-2 [16], 10000 nM	–	–	88.8	–	–
Calu-3 [20], 1 nM	–	–	94.5	–	–
Calu-3 [20], 10 nM	–	–	99.2	–	–
Calu-3 [20], 100 nM	–	–	92.9	–	–
Calu-3 [20], 1000 nM	–	–	100	–	–
Calu-3 [20], 10000 nM	–	–	82.2	–	–
HepG2 [19], 1 nM	–	–	98.7	–	–
HepG2 [19], 10 nM	–	–	97.4	–	–
HepG2 [19], 100 nM	–	–	95.1	–	–
HepG2 [19], 1000 nM	–	–	98.4	–	–
HepG2 [19], 10000 nM	–	–	74.1	–	–
U2OS [18], 1 nM	–	–	108	–	–
U2OS [18], 10 nM	–	–	104	–	–
U2OS [18], 100 nM	–	–	99.1	–	–
U2OS [18], 1000 nM	–	–	99.3	–	–
U2OS [18], 10000 nM	–	–	90.6	–	–
Vero E6 [17], 1 nM	–	–	103	–	–
Vero E6 [17], 10 nM	–	–	99.5	–	–
Vero E6 [17], 100 nM	–	–	98.8	–	–
Vero E6 [17], 1000 nM	–	–	95.4	–	–
Vero E6 [17], 10000 nM	–	–	83.4	–	–
[1], 0.3 µM	–	101	–	–	–
[1], 3 µM	–	114	–	–	–
[1], 10 µM	–	118	–	–	–
[1], 30 µM	–	106	–	–	–
[13], 0.3 µM	–	–	–	-0.08	–
[13], 3 µM	–	–	–	0.58	–
[13], 10 µM	–	–	–	0.78	–
[13], 30 µM	–	–	–	-0.05	–
[14], 0.3 µM	105	–	–	–	–
[14], 3 µM	67	–	–	–	–
[14], 10 µM	14	–	–	–	–
[14], 30 µM	51	–	–	–	–

Conditions	drug sensitivity score	relative viability EC50 [µM]
Caco-2 [2]	–	> 10
Caco-2 [8]	0	–
Calu-3 [6]	–	> 10
Calu-3 [12]	0.4	–
HepG2 [11]	1.2	–
U2OS [4]	–	> 10
U2OS [10]	0	–
Vero E6 [3]	–	> 10
Vero E6 [9]	0.8	–

drug-induced phospholipidosis [%], A549-ACE2 [7]
Conditions	0.3 µM	0.833333 µM	3.33333 µM	6.66667 µM	10 µM	30 µM
24 h	2.47	0.7	26.4	46.9	91.5	84
48 h	4.83	1.26	21.7	49.5	106	117
72 h	2.9	-4.28	15	36.6	99.6	–
